Measurements reported in the CheMixHub viscosity set.
“And” between values parts separate entries of the source, which are not always exact repeats. Identical values can stand only once.

Test: xn = mol fraction of the nth substance listed

CCC(C)N (stereo not given) + Cc1ccccc1
303.15 K, 101 kPa
Conditions	viscosity [mPa·s]
x2 = 0.1499	0.4062
x2 = 0.216	0.4085
x2 = 0.2959	0.4124
x2 = 0.3889	0.419
x2 = 0.5124	0.4325
x2 = 0.613	0.4492
x2 = 0.7105	0.4679
x2 = 0.8708	0.4998

CCCCCCCCCCCCCC[P+](CCCCCC)(CCCCCC)CCCCCC.c1nnc[n-]1 + CCCCCCn1cc[n+](C)c1.O=S(=O)([N-]S(=O)(=O)C(F)(F)F)C(F)(F)F
viscosity [mPa·s], 100 kPa
Conditions	x1 = 0.107	x1 = 0.208	x1 = 0.307	x1 = 0.4	x1 = 0.507	x1 = 0.622	x1 = 0.718	x1 = 0.805	x1 = 0.9
293.15 K	132	220	308	452	677	901	1162	1349	1458
298.15 K	103	165	227	329	485	633	811	932	1013
303.15 K	81	127	171	245	355	456	579	664	720
308.15 K	65	99	132	186	267	337	422	484	524
313.15 K	54	79	104	145	204	253	314	359	389
318.15 K	–	64	83	115	159	194	239	273	296
323.15 K	–	53	67	93	127	152	185	211	229

CCCCCCO + O
viscosity [mPa·s], 101 kPa
Conditions	298.15 K	308.15 K	318.15 K
x2 = 0.0013	–	–	2.573
x2 = 0.0042	4.567	3.388	–
x2 = 0.0554	–	–	2.513
x2 = 0.0593	4.427	3.295	–
x2 = 0.1019	–	–	2.475
x2 = 0.1079	4.355	3.237	–
x2 = 0.1483	4.324	3.209	2.447
x2 = 0.1875	–	–	2.432
x2 = 0.1933	4.314	3.193	–
x2 = 0.2248	–	–	2.425
x2 = 0.2367	4.322	3.192	–
x2 = 0.2673	4.341	3.198	2.427
x2 = 0.2981	4.369	3.213	–
x2 = 0.3116	–	–	2.439

O=C(OCc1ccccc1)c1ccccc1O + CS(C)=O
303.15 K, 101 kPa
Conditions	viscosity [mPa·s]
x1 = 0.079	2.299
x1 = 0.1284	2.529
x1 = 0.1867	2.933
x1 = 0.2564	3.273
x1 = 0.3413	3.776
x1 = 0.4467	4.342
x1 = 0.5812	4.995

CC(=O)CC(C)C + CCCCCCC
298.15 K, 101 kPa
Conditions	viscosity [mPa·s]
x1 = 0.1142	0.39
x1 = 0.2052	0.397
x1 = 0.3088	0.407
x1 = 0.4417	0.424
x1 = 0.5341	0.438
x1 = 0.6443	0.458
x1 = 0.7444	0.478
x1 = 0.8854	0.511

Cc1cccc[n+]1CCCO.[Cl-] + O
viscosity [mPa·s], 100 kPa
Conditions	x1 = 0.0008999	x1 = 0.001798	x1 = 0.003589	x1 = 0.005379	x1 = 0.007153	x1 = 0.00892
293.15 K	1.041	1.068	1.116	1.161	1.203	1.243
298.15 K	0.922	0.945	0.987	1.026	1.063	1.098
303.15 K	0.822	0.841	0.877	0.911	0.943	0.974
308.15 K	0.739	0.756	0.788	0.818	0.846	0.874
313.15 K	0.668	0.682	0.709	0.736	0.761	0.786

CCOCC + c1ccccc1
Conditions	viscosity
293.15 K, 101 kPa, x2 = 0.24	0.3 mPa·s
293.15 K, 101 kPa, x2 = 0.49	0.381 mPa·s
293.15 K, 101 kPa, x2 = 0.74	0.482 mPa·s
293.15 K, 101.33 kPa, x1 = 0.2	0.504 mPa·s and 0.504 mPa·s
293.15 K, 101.33 kPa, x1 = 0.4	0.407 mPa·s
293.15 K, 101.33 kPa, x1 = 0.5	0.371 mPa·s and 0.371 mPa·s
293.15 K, 101.33 kPa, x1 = 0.6	0.339 mPa·s
293.15 K, 101.33 kPa, x1 = 0.8	0.289 mPa·s
298.15 K, 101 kPa, x1 = 0.2529	0.438 mPa·s
298.15 K, 101 kPa, x1 = 0.4438	0.362 mPa·s
298.15 K, 101 kPa, x1 = 0.7248	0.282 mPa·s
298.15 K, 101 kPa, x2 = 0.24	0.288 mPa·s
298.15 K, 101 kPa, x2 = 0.275	0.282 mPa·s
298.15 K, 101 kPa, x2 = 0.49	0.366 mPa·s
298.15 K, 101 kPa, x2 = 0.5563	0.362 mPa·s
298.15 K, 101 kPa, x2 = 0.74	0.455 mPa·s
298.15 K, 101 kPa, x2 = 0.7471	0.438 mPa·s
303.15 K, 101 kPa, x2 = 0.24	0.278 mPa·s
303.15 K, 101 kPa, x2 = 0.49	0.346 mPa·s
303.15 K, 101 kPa, x2 = 0.74	0.43 mPa·s
308.15 K, 101 kPa, x2 = 0.49	0.322 mPa·s
308.15 K, 101 kPa, x2 = 0.74	0.408 mPa·s

CCOCC + C=C(C)C(=O)OC
298.15 K, 101.3 kPa
Conditions	viscosity [mPa·s]
x2 = 0.0454	0.249
x2 = 0.1483	0.281
x2 = 0.249	0.314
x2 = 0.3495	0.349
x2 = 0.4486	0.385
x2 = 0.4908	0.4
x2 = 0.5479	0.421
x2 = 0.6504	0.459
x2 = 0.7501	0.496
x2 = 0.8488	0.532
x2 = 0.947	0.567

O=C1CCCCC1 + CCOC(=O)OCC
viscosity [mPa·s], 101 kPa
Conditions	x2 = 0.0898	x2 = 0.1505	x2 = 0.2556	x2 = 0.3587	x2 = 0.4619	x2 = 0.5665	x2 = 0.6701	x2 = 0.7601	x2 = 0.8945	x2 = 0.9487
303.15 K	1.626	1.498	1.321	1.156	1.028	0.911	0.825	0.768	0.719	0.708
308.15 K	1.479	1.37	1.202	1.056	0.937	0.837	0.759	0.711	0.669	0.658
313.15 K	1.375	1.274	1.116	0.981	0.873	0.784	0.714	0.668	0.626	0.617

CC(C)CC(C)(C)C + CCCCCC
298.15 K, 101 kPa
Conditions	viscosity [mPa·s]
x1 = 0.05688	0.3093
x1 = 0.1612	0.3278
x1 = 0.2742	0.3441
x1 = 0.3413	0.3538
x1 = 0.4585	0.373
x1 = 0.5556	0.3897
x1 = 0.6116	0.3995
x1 = 0.7348	0.4226
x1 = 0.7874	0.4329
x1 = 0.852	0.4445
x1 = 0.9128	0.4582
x1 = 0.9559	0.4674
x2 = 0.03385	0.484

C=C(C)[C@@H]1CC=C(C)CC1 + CC12CCC(CC1)C(C)(C)O2
viscosity [mPa·s], 101.33 kPa
Conditions	298.15 K	313.15 K
x1 = 0.0715	2.345	1.741
x1 = 0.1121	2.23	1.664
x1 = 0.2018	1.995	1.504
x1 = 0.327	1.704	1.305
x1 = 0.4614	1.439	1.123
x1 = 0.5584	1.279	1.011
x1 = 0.6401	1.162	0.929
x1 = 0.7336	1.05	0.851
x1 = 0.8226	0.963	0.785
x1 = 0.8648	0.928	0.759
x1 = 0.9499	0.872	0.716

CC(=O)CC(C)C + CCCCCCCCCCO
viscosity [mPa·s], 100 kPa
Conditions	x1 = 0.0846	x1 = 0.1569	x1 = 0.2402	x1 = 0.3455	x1 = 0.4437	x1 = 0.5617	x1 = 0.6591	x1 = 0.7447	x1 = 0.8561	x1 = 0.9486
293.15 K	12.8	11.5	10.21	8.72	7.39	5.89	4.69	3.64	2.29	1.18
303.15 K	8.66	7.8	6.94	5.94	5.05	4.05	3.24	2.55	1.65	0.92
313.15 K	6.09	5.5	4.91	4.21	3.59	2.9	2.34	1.85	1.23	0.74
323.15 K	4.44	4.02	3.58	3.08	2.64	2.15	1.75	1.4	0.96	0.61

O=C1CCCCC1 + CCCCCCCO
298.15 K, 101 kPa
Conditions	viscosity [mPa·s]
x2 = 0.1013	1.965
x2 = 0.1998	2.034
x2 = 0.3029	2.16
x2 = 0.4029	2.351
x2 = 0.4994	2.584
x2 = 0.5977	2.914
x2 = 0.6971	3.335
x2 = 0.8008	3.921
x2 = 0.8949	4.663
